From ChEMBL document CHEMBL1136373, “Conformationally restricted 3,4-diarylfuranones (2,3a,4,5-tetrahydronaphthofuranones) as selective cyclooxygenase-2 inhibitors” (Bioorg Med Chem Lett, 2003) come the findings set out here.

For assay [1], the target named is T1, Prostaglandin G/H synthase 2 (Homo sapiens, UniProt P35354).
T1 sequence (P35354 whole entry): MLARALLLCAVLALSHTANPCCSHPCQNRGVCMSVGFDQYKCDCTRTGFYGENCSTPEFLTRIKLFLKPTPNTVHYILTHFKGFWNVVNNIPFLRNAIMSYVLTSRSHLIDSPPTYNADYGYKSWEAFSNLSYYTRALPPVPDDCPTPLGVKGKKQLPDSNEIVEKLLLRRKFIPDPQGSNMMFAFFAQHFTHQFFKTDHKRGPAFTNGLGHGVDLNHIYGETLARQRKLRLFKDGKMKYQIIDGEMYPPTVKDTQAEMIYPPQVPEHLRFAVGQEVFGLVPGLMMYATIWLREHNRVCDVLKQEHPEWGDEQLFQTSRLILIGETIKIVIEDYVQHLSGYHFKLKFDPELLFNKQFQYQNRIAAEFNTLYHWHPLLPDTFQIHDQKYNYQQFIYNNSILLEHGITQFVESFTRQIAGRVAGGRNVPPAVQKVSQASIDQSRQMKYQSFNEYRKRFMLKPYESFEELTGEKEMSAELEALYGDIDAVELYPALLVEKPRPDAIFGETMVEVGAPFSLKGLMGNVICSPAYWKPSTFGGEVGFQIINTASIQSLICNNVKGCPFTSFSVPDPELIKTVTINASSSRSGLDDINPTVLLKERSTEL
As to the kind of experiment: In vitro inhibitory activity against recombinant human Prostaglandin G/H synthase 2.

The target of assay [2] is T2, Prostaglandin G/H synthase 1 (Homo sapiens, UniProt P23219). As to the kind of experiment: In vitro inhibitory activity against recombinant human Prostaglandin G/H synthase 1 at concentration of 100 uM.
The target of assay [3] is T2, Prostaglandin G/H synthase 1. As to the kind of experiment: In vitro inhibitory activity against recombinant human Prostaglandin G/H synthase 1.
The target is the same in assay [4]. As to the kind of experiment: Ratio of in vitro inhibitory activity against recombinant human COX-1 to that of recombinant human COX-2.

T2 sequence (P23219 whole entry): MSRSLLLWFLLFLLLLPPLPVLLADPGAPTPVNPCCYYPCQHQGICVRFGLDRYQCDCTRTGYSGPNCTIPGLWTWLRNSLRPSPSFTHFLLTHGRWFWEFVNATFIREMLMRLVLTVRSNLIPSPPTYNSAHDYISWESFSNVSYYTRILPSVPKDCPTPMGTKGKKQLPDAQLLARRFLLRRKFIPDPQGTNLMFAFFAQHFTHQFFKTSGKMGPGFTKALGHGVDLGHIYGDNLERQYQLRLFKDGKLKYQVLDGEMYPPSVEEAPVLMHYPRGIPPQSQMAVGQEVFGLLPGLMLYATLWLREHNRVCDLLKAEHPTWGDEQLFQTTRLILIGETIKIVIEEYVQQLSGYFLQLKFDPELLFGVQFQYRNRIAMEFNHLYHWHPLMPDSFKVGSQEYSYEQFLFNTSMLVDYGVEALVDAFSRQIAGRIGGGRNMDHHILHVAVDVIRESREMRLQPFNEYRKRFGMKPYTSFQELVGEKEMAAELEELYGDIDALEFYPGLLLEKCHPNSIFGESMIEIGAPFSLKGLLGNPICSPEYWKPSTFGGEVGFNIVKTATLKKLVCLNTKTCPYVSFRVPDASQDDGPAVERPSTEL

The IC50 is the concentration that gives 50% inhibition. Broadly, the inhibition is the change of the read-out against control, counted positive when it falls. As for `Cc1ccc2c(c1)C1=C(c3ccc(S(C)(=O)=O)cc3)C(=O)OC1CC2` (stereo unspecified), the results for the IC50 in assay [1] and in assay [3] were 665 nM and > 30000 nM, respectively. The inhibition in assay [2] worked out at 52%. Besides, the Ratio in assay [4] is > 45.1.
As to `CSc1ccc(C2=C3c4ccccc4CCC3(O)OC2=O)cc1` (stereo unspecified), the values for the IC50 in assay [1] and in assay [3] were 850 nM and 16700 nM, respectively. In assay [2], the inhibition is 80%.
The like results for `CSc1ccc(C2=C3c4cc(C)ccc4CCC3OC2=O)cc1` (stereo unspecified) were, in that order, 971 nM, 61 nM and 100%.
The like results for `CSc1ccc(C2=C3c4cc(C)ccc4CCC3(O)OC2=O)cc1` (stereo unspecified) were, in that order, 670 nM, 13200 nM and 97%.
The corresponding values for `CS(=O)(=O)c1ccc(C2=C3c4ccccc4CCC3OC2=O)cc1` (stereo unspecified) are 562 nM, > 45000 nM and 100%.
For `CS(=O)(=O)c1ccc(C2=C3c4ccccc4CCC3(O)OC2=O)cc1` (stereo unspecified), the inhibition in assay [2] was 57%.
With `CSc1ccc(C2=C3c4ccccc4CCC3OC2=O)cc1` (stereo unspecified), the values for the IC50 in assay [1] and in assay [3] were 827 nM and 53 nM, respectively. Also, the inhibition in assay [2] was found to be 100%.
`C[S+]([O-])c1ccc(C2=C3c4ccccc4CCC3(O)OC2=O)cc1` (stereo unspecified): in assay [2], the inhibition was found to be 11%.
